Test results from article PMC5348404, “Systematic approach identifies RHOA as a potential biomarker therapeutic target for Asian gastric cancer” (Oncotarget, 2016).

Molecular target: T1, RHOA (Homo sapiens, UniProt P61586)
T1 construct: commercial RHOA protein (Sigma-Aldrich SRP5127), immobilized on CMDH gold chip
Test: surface plasmon resonance, immobilized RHOA (Reichert SR7500DC)
Assay type: binding

T1 sequence (P61586 whole entry): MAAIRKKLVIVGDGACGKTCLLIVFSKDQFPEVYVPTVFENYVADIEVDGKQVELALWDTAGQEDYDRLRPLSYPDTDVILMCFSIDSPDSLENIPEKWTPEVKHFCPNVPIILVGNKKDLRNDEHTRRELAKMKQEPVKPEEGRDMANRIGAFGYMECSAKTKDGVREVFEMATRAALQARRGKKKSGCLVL

| Kd | Compound |
| --- | --- |
| 16.3 ± 0.4 µM | O=C(N/N=C/c1ccc2c(c1)OCO2)c1ccncc1 [JK-123] |
| 6.9 ± 0.4 µM | O=C(N/N=C/c1ccc2c(c1)OCO2)c1ccccc1 [JK-122] |

The next lines start with the compound.

| Compound | Kd |
| --- | --- |
| O=C(N/N=C/c1ccc2c(c1)OCO2)c1ccc(O)cc1 [JK-124] | 44 ± 2 µM |
| O=S(=O)(N/N=C/c1ccc2c(c1)OCO2)c1ccccc1 [JK-121] | 67 ± 3 µM |
| CC(=O)N/N=C/c1ccc2c(c1)OCO2 [JK-125] | 8.7 ± 6 µM |
